Measured values published in ChEMBL document CHEMBL5528029, “Design, synthesis, and biological evaluation of novel discoidin domain receptor inhibitors for the treatment of lung adenocarcinoma and pulmonary fibrosis” (Eur J Med Chem, 2024).
Activity calls are given as the source filed them. The calls are words filed in the database; no cut-off is given here.

What was measured:
A549 [1] = assay: Effect on AKT1 level in human A549 cells at 50 to 200 nM by Western blotting analysis; type: functional, cell-based; conditions: dose 50-200 nM
A549 [2] = assay: Inhibition of epithelial-to-mesenchymal transition in human A549 cells assessed as upregulation of E-cadherin protein expression at 50 to 200 nM by Western blotting analysis; type: functional, cell-based; conditions: dose 50-200 nM
A549 [3] = assay: Antiproliferative activity against human A549 cells incubated for 72 hrs by MTT assay; conditions: A549, 72 h
A549 [4] = assay: Antitumor activity against human A549 cells xenografted in SPF BALB/c nude mouse assessed as tumor growth inhibition at 30 mg/kg, ip administered for 14 days; type: functional, organism-based; conditions: time 14.0 day
A549 [5] = assay: Inhibition of epithelial-to-mesenchymal transition in human A549 cells assessed as downregulation of N-cadherin protein expression at 50 to 200 nM by Western blotting analysis; type: functional, cell-based; conditions: dose 50-200 nM
[6] = Antiproliferative activity against human SPCA1 cells incubated for 72 hrs by MTT assay; conditions: SPCA1, 72 h
A549 [7] = assay: Effect on DDR1 level in human A549 cells at 50 to 200 nM by Western blotting analysis; type: functional, cell-based; conditions: dose 50-200 nM
NIH3T3 [8] = assay: Inhibition of TGF-beta1 induced mouse NIH3T3 cells activation assessed as reduction in alpha-SMA level at 5 uM preincubated with TGF-beta1 followed by compound addition by immunofluorescence staining based assay; type: functional, cell-based
NCI-H1975 = assay: Antiproliferative activity against human NCI-H1975 cells incubated for 72 hrs by MTT assay; conditions: NCI-H1975, 72 h
NIH3T3 [9] = assay: Inhibition of TGF-beta1 induced mouse NIH3T3 cells activation assessed as reduction in collagen-I accumulation at 5 uM preincubated with TGF-beta1 followed by compound addition by immunofluorescence staining based assay; type: functional, cell-based
Mus musculus [10] = assay: Antifibrotic activity against bleomycin-induced C57BL/6 mouse model of pulmonary fibrosis assessed as increase in animal survival at 30 mg/kg, ip administered once daily for 21 days; type: functional, organism-based; conditions: time 21.0 day
A549 [11] = assay: Effect on ERK1/2 level in human A549 cells at 50 to 200 nM by Western blotting analysis; type: functional, cell-based; conditions: dose 50-200 nM
[12] = target: NT-3 growth factor receptor (Homo sapiens) (UniProt Q16288); assay: Inhibition of TRK-C (unknown origin) assessed as remaining activity at 1 uM using fluorescein-poly GAT as substrate in presence of ATP by TR-FRET assay relative to control
Chain of NT-3 growth factor receptor (Homo sapiens) (Q16288 32-839 limits assumed): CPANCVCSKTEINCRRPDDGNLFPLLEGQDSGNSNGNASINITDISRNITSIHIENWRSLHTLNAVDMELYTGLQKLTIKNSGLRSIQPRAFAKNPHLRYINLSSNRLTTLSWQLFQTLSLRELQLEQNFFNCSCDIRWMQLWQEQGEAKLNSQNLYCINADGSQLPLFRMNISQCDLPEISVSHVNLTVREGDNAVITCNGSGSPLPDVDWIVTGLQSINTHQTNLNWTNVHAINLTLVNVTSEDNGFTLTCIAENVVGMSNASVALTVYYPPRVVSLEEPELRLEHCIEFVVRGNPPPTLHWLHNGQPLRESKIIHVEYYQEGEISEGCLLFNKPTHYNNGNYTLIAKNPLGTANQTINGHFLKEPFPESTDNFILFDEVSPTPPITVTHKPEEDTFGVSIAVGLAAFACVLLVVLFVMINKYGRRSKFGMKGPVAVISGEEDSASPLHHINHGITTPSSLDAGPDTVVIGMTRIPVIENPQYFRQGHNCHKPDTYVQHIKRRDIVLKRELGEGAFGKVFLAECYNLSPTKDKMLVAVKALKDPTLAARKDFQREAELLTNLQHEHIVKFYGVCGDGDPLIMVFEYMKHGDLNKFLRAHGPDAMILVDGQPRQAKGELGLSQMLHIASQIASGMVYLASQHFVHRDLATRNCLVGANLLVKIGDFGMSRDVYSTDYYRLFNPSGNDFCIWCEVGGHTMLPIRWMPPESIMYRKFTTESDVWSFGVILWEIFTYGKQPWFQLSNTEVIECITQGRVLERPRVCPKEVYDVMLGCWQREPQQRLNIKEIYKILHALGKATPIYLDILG

A549 [13] = assay: Antiproliferative activity against human A549 cells transfected with DDR1 siRNA incubated for 72 hrs by MTT assay; type: functional, cell-based
[14] = target: High affinity nerve growth factor receptor (Homo sapiens) (UniProt P04629); assay: Inhibition of TRK-A (unknown origin) assessed as remaining activity at 1 uM using fluorescein-poly GAT as substrate in presence of ATP by TR-FRET assay relative to control
Chain of High affinity nerve growth factor receptor (Homo sapiens) (P04629 33-796 limits assumed): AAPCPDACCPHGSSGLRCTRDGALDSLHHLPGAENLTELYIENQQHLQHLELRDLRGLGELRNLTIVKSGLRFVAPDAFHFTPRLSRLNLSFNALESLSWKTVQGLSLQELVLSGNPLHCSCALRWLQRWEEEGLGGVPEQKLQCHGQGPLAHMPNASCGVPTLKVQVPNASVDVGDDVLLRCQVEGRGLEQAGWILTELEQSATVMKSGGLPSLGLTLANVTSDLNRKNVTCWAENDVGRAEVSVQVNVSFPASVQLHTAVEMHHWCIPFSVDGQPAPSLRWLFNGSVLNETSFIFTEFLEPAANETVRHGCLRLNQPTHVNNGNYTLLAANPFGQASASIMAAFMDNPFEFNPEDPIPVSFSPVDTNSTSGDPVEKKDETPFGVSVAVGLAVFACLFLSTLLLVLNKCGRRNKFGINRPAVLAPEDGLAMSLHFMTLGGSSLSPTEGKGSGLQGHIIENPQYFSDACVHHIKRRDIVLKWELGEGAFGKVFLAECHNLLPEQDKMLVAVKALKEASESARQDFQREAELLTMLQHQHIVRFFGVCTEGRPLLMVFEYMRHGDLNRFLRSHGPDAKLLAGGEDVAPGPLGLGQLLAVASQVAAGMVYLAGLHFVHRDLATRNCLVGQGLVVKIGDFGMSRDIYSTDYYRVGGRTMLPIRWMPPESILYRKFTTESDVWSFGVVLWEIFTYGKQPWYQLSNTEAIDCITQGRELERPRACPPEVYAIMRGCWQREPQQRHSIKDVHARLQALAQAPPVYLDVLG

Mus musculus [15] = assay: Antifibrotic activity against bleomycin-induced C57BL/6 mouse model of pulmonary fibrosis assessed as reduction in inflammatory cytokines levels in BALF at 30 mg/kg, ip administered once daily for 21 days; type: functional, organism-based; conditions: time 21.0 day
A549 [16] = assay: Inhibition of cell migration in human A549 cells at 50 to 200 nM by transwell assay; type: functional, cell-based; conditions: dose 50-200 nM
A549 [17] = assay: Inhibition of epithelial-to-mesenchymal transition in human A549 cells assessed as upregulation of E-cadherin protein expression at 200 nM by laser confocal microscopy analysis; type: functional, cell-based
[18] = target: T1, Discoidin domain-containing receptor 2 (Homo sapiens) (UniProt Q16832); assay: Inhibition of DDR2 (unknown origin) assessed as remaining activity at 1 uM using fluorescein-poly GAT as substrate in presence of ATP by TR-FRET assay relative to control
T1 sequence (whole entry): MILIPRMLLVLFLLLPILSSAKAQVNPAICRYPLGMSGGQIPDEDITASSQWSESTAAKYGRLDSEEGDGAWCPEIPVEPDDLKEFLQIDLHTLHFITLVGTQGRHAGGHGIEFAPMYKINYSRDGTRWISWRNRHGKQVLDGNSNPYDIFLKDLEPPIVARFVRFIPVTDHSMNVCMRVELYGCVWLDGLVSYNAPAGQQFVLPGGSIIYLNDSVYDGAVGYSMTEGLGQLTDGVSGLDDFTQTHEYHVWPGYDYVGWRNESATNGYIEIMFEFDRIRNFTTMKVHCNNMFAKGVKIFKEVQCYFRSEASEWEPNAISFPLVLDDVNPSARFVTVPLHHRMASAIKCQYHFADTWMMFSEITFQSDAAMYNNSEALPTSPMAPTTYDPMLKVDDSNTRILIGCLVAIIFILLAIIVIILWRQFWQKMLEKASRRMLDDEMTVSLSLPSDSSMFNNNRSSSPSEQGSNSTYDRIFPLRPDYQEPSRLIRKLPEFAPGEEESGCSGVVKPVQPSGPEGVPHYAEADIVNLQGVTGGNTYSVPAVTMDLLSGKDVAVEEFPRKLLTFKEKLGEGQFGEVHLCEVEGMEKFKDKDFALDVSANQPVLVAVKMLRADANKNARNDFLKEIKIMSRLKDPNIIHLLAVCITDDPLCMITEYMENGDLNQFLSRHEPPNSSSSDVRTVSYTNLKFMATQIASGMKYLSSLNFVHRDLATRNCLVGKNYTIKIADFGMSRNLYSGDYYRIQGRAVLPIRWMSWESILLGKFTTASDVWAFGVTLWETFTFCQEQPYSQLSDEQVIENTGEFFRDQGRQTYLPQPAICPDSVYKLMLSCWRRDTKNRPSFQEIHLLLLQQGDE

NIH3T3 [19] = assay: Inhibition of TGF-beta1 induced mouse NIH3T3 cells activation assessed as reduction in collagen-I accumulation at 3 to 6 uM preincubated with TGF-beta1 followed by compound addition by immunofluorescence staining based assay; type: functional, cell-based; conditions: dose 3-6 µM
Mus musculus [20] = assay: Antifibrotic activity against bleomycin-induced C57BL/6 mouse model of pulmonary fibrosis assessed as reduction in neutrophil count in BALF at 30 mg/kg, ip administered once daily for 21 days; type: functional, organism-based; conditions: time 21.0 day
[21] = target: T2, Discoidin domain-containing receptor 2 (Homo sapiens, UniProt Q16832); assay: Inhibition of DDR2 (unknown origin)
T2 sequence (Q16832 whole entry): T1 sequence (whole entry)

Mus musculus [22] = assay: Antifibrotic activity against bleomycin-induced C57BL/6 mouse model of pulmonary fibrosis assessed as increase in animal survival at 15 mg/kg, ip administered once daily for 21 days; type: functional, organism-based; conditions: time 21.0 day
Mus musculus [23] = assay: In vivo inhibition of DDR1 phosphorylation in SPF BALB/c nude mouse xenografted with human A549 cells at 30 mg/kg, ip administered for 14 days; type: functional, organism-based; conditions: time 14.0 day
A549 [24] = assay: Antitumor activity against human A549 cells xenografted in SPF BALB/c nude mouse assessed as reduction in Ki-67 expression at 30 mg/kg, ip administered for 14 days by immunohistochemistry analysis; type: functional, organism-based; conditions: time 14.0 day
[25] = target: RAC-alpha serine/threonine-protein kinase (Homo sapiens) (UniProt P31749); assay: Inhibition of Akt1 phosphorylation in human A549 cells at 50 to 200 nM by Western blotting analysis; type: cell-based; conditions: dose 50-200 nM
Chain of RAC-alpha serine/threonine-protein kinase (Homo sapiens) (P31749 whole entry): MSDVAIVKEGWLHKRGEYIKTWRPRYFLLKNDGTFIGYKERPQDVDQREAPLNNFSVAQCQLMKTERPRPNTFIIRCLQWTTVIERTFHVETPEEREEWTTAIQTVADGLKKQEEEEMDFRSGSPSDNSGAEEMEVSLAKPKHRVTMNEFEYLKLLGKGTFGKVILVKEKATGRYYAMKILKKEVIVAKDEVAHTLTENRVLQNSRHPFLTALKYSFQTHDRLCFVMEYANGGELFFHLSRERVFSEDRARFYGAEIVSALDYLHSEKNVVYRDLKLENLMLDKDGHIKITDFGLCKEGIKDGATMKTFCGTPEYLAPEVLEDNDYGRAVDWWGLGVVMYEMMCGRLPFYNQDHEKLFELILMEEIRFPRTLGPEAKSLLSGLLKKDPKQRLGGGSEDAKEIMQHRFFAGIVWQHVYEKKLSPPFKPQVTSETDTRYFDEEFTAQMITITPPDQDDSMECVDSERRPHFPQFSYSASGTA

Mus musculus [26] = assay: Antifibrotic activity against bleomycin-induced C57BL/6 mouse model of pulmonary fibrosis assessed as reduction in morphological changes at 30 mg/kg, ip administered once daily for 21 days by H and E staining based assay; type: functional, organism-based; conditions: time 21.0 day
[27] = target: Mitogen-activated protein kinase; ERK1/ERK2 (Homo sapiens) (UniProt P27361+P28482); assay: Inhibition of ERK1/2 phosphorylation in human A549 cells at 50 to 200 nM by Western blotting analysis; type: cell-based; conditions: dose 50-200 nM
Chain of Mitogen-activated protein kinase; ERK1/ERK2 (Homo sapiens) (P27361 whole entry, looked up): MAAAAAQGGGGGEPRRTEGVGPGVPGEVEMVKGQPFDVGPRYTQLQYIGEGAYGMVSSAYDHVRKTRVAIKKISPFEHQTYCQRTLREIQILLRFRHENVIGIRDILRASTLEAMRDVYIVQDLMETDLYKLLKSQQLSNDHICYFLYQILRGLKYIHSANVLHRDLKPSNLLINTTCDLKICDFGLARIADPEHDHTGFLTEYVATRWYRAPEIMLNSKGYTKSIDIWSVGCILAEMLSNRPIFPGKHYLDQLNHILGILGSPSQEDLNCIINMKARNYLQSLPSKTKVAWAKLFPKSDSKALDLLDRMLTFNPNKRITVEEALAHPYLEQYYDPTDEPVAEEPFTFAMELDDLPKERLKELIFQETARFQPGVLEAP
Chain of Mitogen-activated protein kinase; ERK1/ERK2 (Homo sapiens) (P28482 whole entry, looked up): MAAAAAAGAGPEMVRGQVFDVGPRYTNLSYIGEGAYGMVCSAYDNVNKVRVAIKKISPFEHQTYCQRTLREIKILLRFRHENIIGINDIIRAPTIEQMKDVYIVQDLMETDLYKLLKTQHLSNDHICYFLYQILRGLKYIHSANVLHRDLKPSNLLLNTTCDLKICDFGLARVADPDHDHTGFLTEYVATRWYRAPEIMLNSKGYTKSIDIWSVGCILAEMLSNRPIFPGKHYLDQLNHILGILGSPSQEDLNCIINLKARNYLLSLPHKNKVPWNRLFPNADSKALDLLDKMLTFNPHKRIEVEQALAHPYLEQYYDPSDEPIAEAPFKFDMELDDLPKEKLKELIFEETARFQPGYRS

Mus musculus [28] = assay: Antifibrotic activity against bleomycin-induced C57BL/6 mouse model of pulmonary fibrosis assessed as reduction in collagen hyperplasia at 30 mg/kg, ip administered once daily for 21 days; type: functional, organism-based; conditions: time 21.0 day
[29] = target: BDNF/NT-3 growth factors receptor (Homo sapiens) (UniProt Q16620); assay: Inhibition of TRK-B (unknown origin) assessed as remaining activity at 1 uM using fluorescein-poly GAT as substrate in presence of ATP by TR-FRET assay relative to control
Chain of BDNF/NT-3 growth factors receptor (Homo sapiens) (Q16620 32-822 limits assumed): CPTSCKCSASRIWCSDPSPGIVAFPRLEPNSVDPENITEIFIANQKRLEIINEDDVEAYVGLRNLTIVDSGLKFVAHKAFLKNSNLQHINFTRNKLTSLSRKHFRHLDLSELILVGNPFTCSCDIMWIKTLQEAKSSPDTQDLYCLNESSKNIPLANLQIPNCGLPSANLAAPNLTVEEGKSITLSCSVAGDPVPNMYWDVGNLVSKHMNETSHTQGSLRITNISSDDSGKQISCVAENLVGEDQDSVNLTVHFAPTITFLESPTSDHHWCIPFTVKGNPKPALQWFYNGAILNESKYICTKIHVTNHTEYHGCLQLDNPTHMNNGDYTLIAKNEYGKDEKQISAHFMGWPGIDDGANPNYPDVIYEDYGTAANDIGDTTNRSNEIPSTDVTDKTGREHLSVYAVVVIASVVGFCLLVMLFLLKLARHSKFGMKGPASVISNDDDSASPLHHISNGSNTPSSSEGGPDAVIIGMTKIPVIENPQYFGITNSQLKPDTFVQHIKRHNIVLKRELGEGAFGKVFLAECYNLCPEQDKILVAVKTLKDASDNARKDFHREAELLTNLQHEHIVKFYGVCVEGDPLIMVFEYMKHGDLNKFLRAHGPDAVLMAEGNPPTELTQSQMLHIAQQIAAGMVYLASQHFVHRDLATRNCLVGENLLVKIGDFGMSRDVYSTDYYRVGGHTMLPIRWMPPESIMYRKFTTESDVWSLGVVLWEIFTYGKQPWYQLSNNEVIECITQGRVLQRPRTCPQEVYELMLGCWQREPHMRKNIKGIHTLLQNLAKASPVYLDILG

[30] = Toxicity in SPF BALB/c nude mouse xenografted with human A549 cells assessed as weight loss at 30 mg/kg, ip administered for 14 days; type: organism-based; conditions: in vivo, 336 h, time 14 day
A549 [31] = assay: Inhibition of epithelial-to-mesenchymal transition in human A549 cells assessed as downregulation of N-cadherin protein expression at 200 nM by laser confocal microscopy analysis; type: functional, cell-based
A549 [32] = assay: Antitumor activity against human A549 cells xenografted in SPF BALB/c nude mouse assessed as reduction in cell growth ratio at 30 mg/kg, ip administered for 14 days by TUNEL staining based immunohistochemistry analysis; type: functional, organism-based; conditions: time 14.0 day
Mus musculus [33] = assay: Antifibrotic activity against bleomycin-induced C57BL/6 mouse model of pulmonary fibrosis assessed as reduction in total cell count in BALF at 30 mg/kg, ip administered once daily for 21 days; type: functional, organism-based; conditions: time 21.0 day
Mus musculus [34] = assay: Antifibrotic activity against bleomycin-induced C57BL/6 mouse model of pulmonary fibrosis assessed as reduction in alpha-SMA level in pulmonary tissue at 30 mg/kg, ip administered once daily for 21 days by immunofluorescence staining based assay; type: functional, organism-based; conditions: time 21.0 day
NIH3T3 [35] = assay: Inhibition of TGF-beta1 induced mouse NIH3T3 cells activation assessed as reduction in alpha-SMA level at 3 to 6 uM preincubated with TGF-beta1 followed by compound addition by immunofluorescence staining based assay; type: functional, cell-based; conditions: dose 3-6 µM
Mus musculus [36] = assay: Antifibrotic activity against bleomycin-induced C57BL/6 mouse model of pulmonary fibrosis assessed as reduction in collagen-I level in pulmonary tissue at 30 mg/kg, ip administered once daily for 21 days by immunofluorescence staining based assay; type: functional, organism-based; conditions: time 21.0 day

## Cc1nc(Nc2ncc(C(=O)Nc3c(C)cccc3Cl)s2)cc(N2CCN(CCO)CC2)n1 [DASATINIB ANHYDROUS]
A549 [1]
  Activity: inactive
A549 [2]
  inhibition: Active
A549 [3]
  IC50: 2550 nM
A549 [4]
  Activity: Active
A549 [5]
  inhibition: Active
[6]
  IC50: 2460 nM
A549 [7]
  Activity: inactive
NIH3T3 [8]
  inhibition: Active
NCI-H1975
  IC50: 1260 nM
NIH3T3 [9]
  inhibition: Active
Mus musculus [10]
  Activity: Active
A549 [11]
  Activity: inactive

## CN1CCN(C(=O)Cn2cc(CNC(=O)Nc3ccc(F)cc3F)c3cc(F)ccc32)CC1
[12]
  Activity: 78.6%
A549 [13]
  Activity: inactive
[14]
  Activity: 84.9%
Mus musculus [15]
  Activity: Active
A549 [16]
  inhibition: Active
A549 [17]
  inhibition: Active
[18]
  Activity: 13.7%
A549 [1]
  Activity: inactive
A549 [2]
  inhibition: Active
A549 [3]
  IC50: 1840 nM
NIH3T3 [19]
  inhibition: Active
Mus musculus [20]
  Activity: Active
[21]
  IC50: 126 nM
A549 [4]
  Activity: Active
Mus musculus [22]
  Activity: Active
Mus musculus [23]
  inhibition: Active
A549 [24]
  Activity: Active
[25]
  inhibition: Active
Mus musculus [26]
  Activity: Active
A549 [5]
  inhibition: Active
[6]
  IC50: 3510 nM
[27]
  inhibition: Active
A549 [7]
  Activity: inactive
Mus musculus [28]
  Activity: Active
[29]
  Activity: 106%
[30]
  Activity: Non-Toxic
A549 [31]
  inhibition: Active
NCI-H1975
  IC50: 1870 nM
Mus musculus [10]
  Activity: Active
A549 [32]
  Activity: Active
Mus musculus [33]
  Activity: Active
Mus musculus [34]
  Activity: Active
A549 [11]
  Activity: inactive
NIH3T3 [35]
  inhibition: Active
Mus musculus [36]
  Activity: Active
